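Test compounds were applied to cells in 96-well plates for 48 hours at 5 doses. GI50: concentration for 50% inhibition of growth.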 The source made the active and inactive calls. Cut-off read from the data, not from the text of the source: active = GI50 up to about 1.1 µM and inactive = higher.
Assays:
Assay in all cases: growth of human tumour cells (NCI), 48 h
[1] = tested on: TK-10
[2] = tested on: SF-295
[3] = tested on: SK-OV-3
[4] = tested on: M14
[5] = tested on: HOP-92
[6] = tested on: EKVX
[7] = tested on: SW-620
[8] = tested on: HT-29
[9] = tested on: M19-MEL
[10] = tested on: SF-268
[11] = tested on: K562
[12] = tested on: SNB-75
[13] = tested on: HL-60
[14] = tested on: RPMI-8226
[15] = tested on: NCI-H522
[16] = tested on: IGROV-1
[17] = tested on: ACHN

Measured: GI50

Cc1ccc(S(=O)(=O)NC(=O)C2S(=O)(=O)OCCOS2(=O)=O)cc1
inactive: [1] > 100 µM | [2] > 100 µM | [3] > 100 µM | [4] > 100 µM | [5] > 100 µM | [6] > 100 µM | [7] > 100 µM | [8] > 100 µM | [9] > 100 µM | [10] > 100 µM | [11] > 100 µM | [12] > 100 µM | [13] > 100 µM | [14] > 100 µM | [15] > 100 µM

CCOC(=O)c1[nH]c(COC(C)=O)c2c1CCCCCCCCCC2
inactive: [1] > 100 µM | [2] > 100 µM | [3] > 100 µM | [4] > 100 µM | [5] > 100 µM | [6] > 100 µM | [7] > 100 µM | [8] > 100 µM | [9] > 100 µM | [10] > 100 µM | [11] > 100 µM | [12] > 100 µM | [16] > 100 µM | [13] > 100 µM | [14] > 100 µM | [15] > 100 µM

OCC[N+]12CCCN1CCC2
inactive: [1] > 100 µM | [2] > 100 µM | [3] > 100 µM | [4] > 100 µM | [5] > 100 µM | [6] > 100 µM | [7] > 100 µM | [8] > 100 µM | [9] > 100 µM | [10] > 100 µM | [11] > 100 µM | [17] > 100 µM | [12] 61.7 µM | [16] > 100 µM | [13] > 100 µM | [15] > 100 µM

COc1cccc(OC)c1/C=N\N1C(=O)c2ccccc2C1=O
inactive: [1] 57.7 µM | [2] 92.3 µM | [4] 19.7 µM | [5] 47.2 µM | [6] > 100 µM | [7] 41.6 µM | [8] 35.5 µM | [9] 48.4 µM | [10] 37.8 µM | [11] 39.1 µM | [17] 47.4 µM | [12] 38.5 µM | [16] 84.3 µM | [13] 33.9 µM | [14] 28.2 µM

COc1cc(/C=C/c2ccc(OC(C)=O)cc2)cc(OC)c1OC
inactive: [1] 31.9 µM | [2] 26.6 µM | [4] 27.9 µM | [5] 30 µM | [6] 26.3 µM | [7] 43.5 µM | [8] 34.9 µM | [9] 39.9 µM | [10] 32 µM | [11] 27.1 µM | [17] 15.5 µM | [16] 32.4 µM | [13] 12.4 µM | [14] 19.1 µM | [15] 17.9 µM

CC(C)C(Sc1nc(-c2ccccc2)c(-c2ccccc2)[nH]1)c1n[nH]c(=S)n1-c1ccccc1 (stereo not drawn)
inactive: [1] 45 µM | [2] 22.3 µM | [3] 40.3 µM | [4] 19.2 µM | [5] 22.5 µM | [6] 26.2 µM | [7] 23.4 µM | [8] 23.8 µM | [9] 17.5 µM | [10] 29.4 µM | [17] 29.6 µM | [12] 66.5 µM | [16] 26.4 µM | [13] 20.7 µM | [14] 21.2 µM | [15] 21 µM

— ChEMBL document CHEMBL1201862, “PubChem BioAssay data set” (2004)
